Experimental findings from patent US8183236B2, “Compounds with HIV-1 integrase inhibitory activity and use thereof as anti-HIV/AIDS therapeutics” (University of Southern California, priority 2007, dated 2012) are described below.

Experiment [1] concerns the target T1, HIV-1 integrase (wild-type IN) (Human immunodeficiency virus type 1 group M subtype B, UniProt P12497). Nature of the experiment: HIV-1 integrase 3′-processing assay (32P-labeled 21-mer, gel). Format: biochemical. Put shortly:
(§1)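 Wild-type IN at 200 nM preincubated with inhibitor 30 min at 30 °C in MnCl2 (7.5 mM), pH 7.2 MOPS buffer with 10% DMSO, then 20 nM 5′-32P-labeled 21-mer duplex added for 1 h. 19-mer and strand-transfer products resolved on denaturing 20% gels by phosphorimaging; IC50 from log concentration versus % inhibition.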

In experiment [2] the target is T1, HIV-1 integrase (wild-type IN). Nature of the experiment: HIV-1 integrase strand transfer assay (32P-labeled 21-mer, gel). Format: biochemical. Put shortly: as §1
The mark [3] stands for this setting: wild-type IN 200 nM, 7.5 mM MnCl2, read-out: Inhibition of IN Catalytic Activities IC50 (μM) 3′-processing.
Setting [4] is: wild-type IN 200 nM, 7.5 mM MnCl2, read-out: Inhibition of IN Catalytic Activities IC50 (μM) Strand Transfer.
The mark [5] stands for this setting: unit inferred, read-out: HIV-1 IN Inhibitory Activities 3′-processing.
The mark [6] stands for this setting: unit inferred, read-out: HIV-1 IN Inhibitory Activities Strand transfer.
The mark [7] stands for this setting: unit inferred, read-out: IN inhibition activity 3′-processing.
The mark [8] stands for this setting: unit inferred, read-out: IN inhibition activity Strand transfer.
Setting [9] is: Table 54, read-out: IN inhibition activity 3′-processing.
Where [10] appears, read: Table 54, read-out: IN inhibition activity Strand transfer.
Setting [11] is: Table 53, structurally diverse compounds, read-out: IN inhibition activity 3′-processing.
Setting [12] is: Table 53, structurally diverse compounds, read-out: IN inhibition activity Strand transfer.

Regarding `COc1ccc(C=C2SC(=S)N(CCC(=O)Nc3ccc(C(=O)O)c(O)c3)C2=O)cc1OC` [Compound X192], the IC50 was found to be 61 ± 34 µM in experiment [1] (setting [3]) and 17 ± 4 µM in experiment [2] (setting [4]).
For `O=C(CN1C(=O)C(=Cc2ccccc2Cl)SC1=S)Nc1ccc([N+](=O)[O-])cc1O` [Compound X193] the same measures were > 100 µM and > 100 µM.
For `O=C(CN1C(=O)C(=Cc2ccccc2Cl)SC1=S)Nc1cc([N+](=O)[O-])ccc1O` [Compound X194] the same measures were 20 ± 7 µM and 18 ± 11 µM.
For `Cc1ccc(C=C2SC(=S)N(CC(=O)Nc3ccc([N+](=O)[O-])cc3O)C2=O)cc1` [Compound X195] the same measures were > 100 µM and > 100 µM.
As to `O=C(NC(=S)Nc1ccc(O)c(C(=O)O)c1)c1ccccc1` [Compound X199], the IC50 in experiment [1] (setting [3]) and in experiment [2] (setting [4]) was > 100 µM each time.
For the compound `O=C(CCN1C(=O)/C(=C/c2ccccc2Cl)SC1=S)Nc1ccc([N+](=O)[O-])cc1` [Compound X200], the IC50 in experiment [1] (setting [3]) and in experiment [2] (setting [4]) was > 100 µM in each case.
As for `O=C1/C(=C/c2ccc(O)cc2O)SC(=S)N1c1ccccc1` [Compound X221], the IC50 in experiment [1] (setting [3]) and in experiment [2] (setting [4]) was > 100 µM in each case.
Regarding `CCOc1cc(/C=C2\SC(=S)N(NC(=O)c3ccccc3O)C2=O)ccc1O` [Compound X223], the IC50 in experiment [1] (setting [3]) was 70 ± 27 µM; in experiment [2] (setting [4]), 38 ± 14 µM.
For `CC(C)Cn1c(=O)c(C(=O)Nc2ccccc2S(N)(=O)=O)c(O)c2ccccc21` [Compound X228] the same measures were 40 µM and 16 µM.
Turning to `O=C(N/N=C1/C(=O)Nc2ccc(F)cc21)/C(=C/C=C/c1ccccc1)NC(=O)c1ccccc1` [Compound X231], the IC50 in experiment [1] (setting [5]) was 60 µM; in experiment [2] (setting [6]) it was 38 µM.
For `O=C(N/N=C/c1cc(Br)ccc1O)/C(=C/C=C/c1ccccc1)NC(=O)c1ccccc1` [Compound X234] the same measures were 90 µM and 23 µM.
Regarding `O=C(CSc1nc2ccccc2n1Cc1ccccc1)N/N=C/c1cc(Br)ccc1O` [Compound X244], the IC50 in experiment [1] (setting [7]) came to 60 ± 11 µM; in experiment [2] (setting [8]) it was 51 ± 3 µM.
As to `O=C(Nc1ccc(O)c(-c2nc3cc(Cl)ccc3o2)c1)c1cccnc1` [Compound X255], the IC50 was found to be 61 µM in experiment [1] (setting [5]) and 10 µM in experiment [2] (setting [6]).
With `O=C(COc1ccccc1[N+](=O)[O-])Nc1ccc(O)c(-c2nc3ccccc3s2)c1` [Compound X257], the IC50 was 99 µM in experiment [1] (setting [5]) and 80 µM in experiment [2] (setting [6]).
Turning to `CCOC(=O)c1c(-c2ccccc2)csc1NC(NC(=O)c1ccco1)C(=O)c1ccc(C)cc1` (centres unmarked) [Example X88], the IC50 in experiment [1] (setting [5]) was > 100 µM; in experiment [2] (setting [6]), 79 µM.
In the case of `O=C(N/N=C1\C(=O)Nc2ccc(Br)cc21)/C(O)=C/C(=O)c1ccc(Cl)cc1` [Example X115], the IC50 was found to be 42 µM in experiment [1] (setting [5]) and 28 µM in experiment [2] (setting [6]).
For `COc1ccc(CCNC(=O)CC(=O)N/N=C/c2ccco2)cc1OC` [Example X134] the same measures were > 100 µM and 90 µM.
For `O=C(Nc1ccccc1C(=O)O)c1cccc(S(=O)(=O)Nc2cccc([N+](=O)[O-])c2)c1` [Example X148] the same measures were 89 µM and 90 µM.
For `O=C(/C=C/c1ccc(Cl)cc1)Nc1ccc(NC(=O)c2ccco2)cc1` [Example X159] the same measures were 90 µM and 91 µM.
For `O=C(c1ccccc1)c1cc(Br)ccc1NC(=O)c1nc[nH]c1C(=O)O` [Example X160], the IC50 is 16 µM in experiment [1] (setting [5]) and 17 µM in experiment [2] (setting [6]).
For `O=C(O)C(Cc1c[nH]c2ccccc12)NS(=O)(=O)c1ccccc1[N+](=O)[O-]` (centres unmarked) [Example X182] the same measures were 88 µM and 56 µM.
In the case of `O=C(/C=C/c1ccco1)NC(=S)Nc1ccccc1O` [Example X205], the IC50 in experiment [1] (setting [5]) came to 57 µM; in experiment [2] (setting [6]), 28 µM.
Consider `Oc1ccccc1/C=N/CC(O)C/N=C/c1ccccc1O` [Example X208], for which the values for the IC50 in experiment [1] (setting [5]) and in experiment [2] (setting [6]) were 97 µM and 61 µM, respectively.
For `O=C(N/N=C/c1ccc(/C=N/NC(=O)c2cc(O)cc(O)c2)cc1)c1cc(O)cc(O)c1` [Example X218] the same measures were 76 µM and 56 µM.
On to `Cc1c(C(c2ccc(O)c(O)c2)c2c(C)n(C)n(-c3ccccc3)c2=O)c(=O)n(-c2ccccc2)n1C` [Example X219], for which the IC50 amounted to 89 µM in experiment [1] (setting [5]) and 31 µM in experiment [2] (setting [6]).
For `O=C(CSc1nc(CSc2ccc(Cl)cc2)cc(=O)[nH]1)Nc1ccc(Cl)cc1Cl` [Example X272] the same measures were 34 µM and 24 µM.
In the case of `COc1cc(/C=N/NC2=NC(=O)C(CC(=O)Nc3ccc(Cl)c(Cl)c3)S2)ccc1O` (centres unmarked) [Example X278], the values for the IC50 in experiment [1] (setting [5]) and in experiment [2] (setting [6]) were 89 µM and 38 µM, respectively.
For `COc1ccc(N(CC(=O)N/N=C/c2c(O)ccc3ccccc23)S(C)(=O)=O)cc1Cl` [Example X279] the same measures were 95 µM and 59 µM.
For `Cc1ccc(C(=O)N/C(=C/c2ccc(-c3ccc(Cl)cc3Cl)o2)C(=O)NCCCO)cc1` [Example X280] the same measures were > 1000 µM and 85 µM.
As for `N#Cc1c(-c2ccc(Cl)cc2)cc(-c2ccccc2)nc1SCC(=O)O` [GLD2A2], the IC50 is 98 ± 10 µM in experiment [1] (setting [7]) and 60 ± 12 µM in experiment [2] (setting [8]).
On to `Nc1cc(N)nc(SCC(=O)O)n1` [GLD2A3], for which the IC50 in experiment [1] (setting [7]) and in experiment [2] (setting [8]) was > 100 µM in each case.
On to `O=C(O)CSc1nc(-c2ccccc2)cc(C(F)(F)F)n1` [GLD2A4], for which the IC50 in experiment [1] (setting [7]) and in experiment [2] (setting [8]) was > 100 µM each time.
For `O=C(O)CSc1nc(-c2cccs2)cc(C(F)(F)F)n1` [GLD2A10], the IC50 in experiment [1] (setting [7]) and in experiment [2] (setting [8]) was > 100 µM throughout.
Turning to `O=C(O)CSc1nc(Nc2ccccc2)nc(N2CCOCC2)n1` [GLD2A18], the IC50 in experiment [1] (setting [7]) and in experiment [2] (setting [8]) was > 100 µM throughout.
For the compound `O=C(O)CSc1nnc(-c2ccco2)c(-c2ccco2)n1` [GLD2], the IC50 in experiment [1] (setting [7]) worked out at 18 ± 4 µM; in experiment [2] (setting [8]), 5 ± 3 µM.
With `CCOc1cc(N(CC)CC)ccc1/C=C1\C(=O)N(c2nnn[nH]2)N=C1C` [GLD12A1], the figures for the IC50 in experiment [1] (setting [9]) and in experiment [2] (setting [10]) were 61 ± 8 µM and 65 ± 8 µM, respectively.
Regarding `COc1cc(/C=C2\C(=O)N(c3nnn[nH]3)N=C2C)cc(Cl)c1OC` [GLD12A2], the results for the IC50 in experiment [1] (setting [9]) and in experiment [2] (setting [10]) were 5 ± 2 µM and 4 ± 2 µM, respectively.
For `CCOc1cc(/C=C2\C(=O)N(c3nnn[nH]3)N=C2C)ccc1OC` [GLD12A3] the same measures were 75 ± 28 µM and 59 ± 13 µM.
Take `CCOc1cc(/C=C2\C(=O)N(c3nnn[nH]3)N=C2C)cc(Cl)c1OCC` [GLD12A4]: the IC50 in experiment [1] (setting [9]) is 7 ± 6 µM; in experiment [2] (setting [10]) it was 4 ± 2 µM.
Turning to `CC1=NN(c2nnn[nH]2)C(=O)/C1=C\c1cc(Cl)c(O)c(Cl)c1` [GLD12A5], the IC50 in experiment [1] (setting [9]) came out at 11 ± 3 µM; in experiment [2] (setting [10]) it was 13 ± 11 µM.
For `COc1ccc(/C=C2\C(=O)N(c3nnn[nH]3)N=C2C)cc1OCc1ccccc1Cl` [GLD12] the same measures were 14 ± 7 µM and 5 ± 3 µM.
For `CCOc1cc(CNc2nn[nH]n2)cc(Cl)c1OCc1ccc(Cl)cc1` [GLD19], the IC50 in experiment [1] (setting [11]) was > 100 µM; in experiment [2] (setting [12]) it was 52 ± 8 µM.
For `O=C(O)C(O)C(O)c1nc2cc3ccccc3cc2[nH]1` (centres unmarked) [GLD20] the same measures were > 100 µM and 46 ± 12 µM.
For `O=C(Nc1ccccc1C(=O)O)c1cccc(S(=O)(=O)Nc2ccc(Oc3ccccc3)cc2)c1` [GLD25] the same measures were 42 ± 10 µM and 18 ± 3 µM.
For `Cc1ccc2nc(-c3ccc(NC(=O)/C=C/C(=O)O)cc3)sc2c1` [GLD28], the IC50 in experiment [1] (setting [11]) was 48 ± 19 µM; in experiment [2] (setting [12]), 23 ± 4 µM.
For `O=C(O)CN1C(=O)/C(=C2\SC(=S)N(C(Cc3ccccc3)C(=O)O)C2=O)c2ccccc21` (centres unmarked) [GLD31] the same measures were 92 ± 17 µM and 66 ± 17 µM.
For `O=C(O)C1CCCCC1C(=O)Nc1ccc(Oc2cccc3ccccc23)cc1` (centres unmarked) [GLD32] the same measures were > 100 µM and 34 ± 7 µM.
In the case of `COc1ccc(-c2nnc(SCC(=O)N/N=C/c3ccccc3C(=O)O)n2-c2ccccc2)cc1OC` [GLD38], the IC50 in experiment [1] (setting [7]) and in experiment [2] (setting [8]) was > 100 µM in each case.
Turning to `O=C(CSc1nnc(-c2ccc(Cl)cc2)n1-c1ccccc1)N/N=C/c1ccccc1C(=O)O` [GLD39], the IC50 in experiment [1] (setting [7]) and in experiment [2] (setting [8]) was > 100 µM throughout.
Consider `Nc1c(C(=O)Nc2ccc(Cl)c(Cl)c2)sc2[nH]c(=O)c(C(=O)O)cc12` [GLD44], for which the IC50 came to 14 ± 6 µM in experiment [1] (setting [7]) and 5 ± 4 µM in experiment [2] (setting [8]).
Regarding `COc1cccc(NC(=O)c2sc3[nH]c(=O)c(C(=O)O)cc3c2N)c1` [GLD45], the IC50 in experiment [1] (setting [7]) is 82 ± 13 µM; in experiment [2] (setting [8]) it was 43 ± 12 µM.
Consider `Cc1ccc(C(=O)O)cc1NC(=O)CSc1nc2ccccc2s1` [GLD59], for which the IC50 in experiment [1] (setting [11]) amounted to 63 ± 22 µM; in experiment [2] (setting [12]), 17 ± 2 µM.
Regarding `CSc1ccc(/C=N/NC(=O)CSc2nnc(-c3ccc(Cl)cc3)n2-c2ccccc2)cc1` [HD39], the IC50 in experiment [1] (setting [7]) and in experiment [2] (setting [8]) was > 100 µM each time.
As for `O=C(Nc1ncccc1O)c1c(O)c2cccc3c2n(c1=O)CCC3` [LM11], the IC50 in experiment [1] (setting [3]) is 56 µM; in experiment [2] (setting [4]), 15 µM.
For `COc1ccc(-c2nnc(SCC(=O)N/N=C/c3cccc(Oc4ccccc4)c3)n2-c2ccccc2)cc1OC` [LX6], the IC50 in experiment [1] (setting [7]) and in experiment [2] (setting [8]) was > 100 µM throughout.
